Measured values reported in paper PMC11129975, “A first-in-human phase I study of TAS-117, an allosteric AKT inhibitor, in patients with advanced solid tumors” (Cancer Chemotherapy and Pharmacology, 2024).

Assay: Phase I safety: adverse events, adverse drug reactions, DLTs in patients with advanced solid tumors
Type: in vivo, human
Text: This was a phase I, open-label, non-randomized, dose-escalating first-in-human study to evaluate the safety, pharmacokinetics, antitumor activity, pharmacodynamics, and pharmacogenomics of TAS-117 in patients with advanced solid tumors. The study had three phases: a dose escalation phase (DEP), a regimen modification phase (RMP), and a safety assessment phase (SAP). The treatment cycle on each regimen lasted 21 days. The DEP used an accelerated titration and 3 + 3 design. TAS-117 was administered orally once daily (QD) on an empty stomach (1 h before or 2 h after a meal). Dosing was determined based on a 4-week repeated oral-dose toxicology study in monkeys (data on file, Taiho Pharmaceutical Co., Ltd.); the highest non-severely toxic dose was 1.2 mg/kg/day, which was converted to 3.84 mg/body/day, or 2.4 mg/m^2. Therefore, the starting dose was determined to be ≤ 2.4 mg/m^2. At dose level 1, TAS-117 was administered at 2 mg QD (Day − 2), and the dose was increased to 4 mg QD after 2 days (Day 1). The RMP was conducted according to a 3 + 3 design. During this phase, the dose regimen was changed from QD administration to intermittent dosing of daily TAS-117 with 4 days on/3 days off. TAS-117 was administered on an empty stomach. Dose-limiting toxicities (DLTs) were evaluated in Cycle 1 of the DEP and RMP. […] The RD and regimen for the SAP were determined based on the safety, pharmacokinetics, pharmacodynamics, and antitumor activity profile determined in the DEP and RMP. During the SAP, the safety and preliminary efficacy profiles of TAS-117 were assessed at the RD and recommended regimen. Three cohorts were included in this assessment. Cohort 1 included patients with endometrial cancer with a PIK3CA mutation; cohort 2 included patients with endometrial cancer with an AKT1 mutation, AKT1 amplification, or AKT2 amplification; and cohort 3 included patients with ovarian clear cell carcinoma.
The primary endpoints were the proportion of patients who experienced DLTs in Cycle 1 of the DEP and RMP and the incidence of adverse events (AEs) and adverse drug reactions (ADRs) in the SAP. AEs and ADRs were coded using the Medical Dictionary for Regulatory Activities (MedDRA; version 24.1) and graded according to the National Cancer Institute Common Terminology Criteria for Adverse Events (CTCAE; version 4.03). Secondary endpoints were pharmacokinetic findings, changes in the ratio of phosphorylated PRAS40 (pPRAS40)/total PRAS40 from baseline, efficacy, and pharmacogenomics findings.

SMILES: C[C@]1(O)C[C@@](N)(c2ccc(-c3nc4n(c3-c3ccccc3)COc3ccncc3-4)cc2)C1 [TAS-117]
- Adverse drug reactions: AST increased (SAP n = 43, All grade): 6 (14.0) n (%)
- Adverse drug reactions: Any events (SAP n = 43, All grade): 43 (100.0) n (%)
- Adverse drug reactions: Blood AP increased (SAP n = 43, All grade): 5 (11.6) n (%)
- Adverse drug reactions: Decreased appetite (SAP n = 43, All grade): 3 (7.0) n (%)
- Adverse drug reactions: Diarrhea (SAP n = 43, All grade): 5 (11.6) n (%)
- Adverse drug reactions: Dry skin (SAP n = 43, All grade): 7 (16.3) n (%)
- Adverse drug reactions: GGT increased (SAP n = 43, All grade): 5 (11.6) n (%)
- Adverse drug reactions: GI disorders (SAP n = 43, All grade): 29 (67.4) n (%)
- Adverse drug reactions: General disorders and administration site conditions (SAP n = 43, All grade): 20 (46.5) n (%)
- Adverse drug reactions: Hyperglycemia (SAP n = 43, All grade): 23 (53.5) n (%)
- Adverse drug reactions: Investigations (SAP n = 43, All grade): 28 (65.1) n (%)
- Adverse drug reactions: Metabolism and nutrition disorders (SAP n = 43, All grade): 26 (60.5) n (%)
- Adverse drug reactions: Nausea (SAP n = 43, All grade): 12 (27.9) n (%)
- Adverse drug reactions: Neutrophil count decreased (SAP n = 43, All grade): 15 (34.9) n (%)
- Adverse drug reactions: Pruritus (SAP n = 43, All grade): 8 (18.6) n (%)
- Adverse drug reactions: Pyrexia (SAP n = 43, All grade): 12 (27.9) n (%)
- Adverse drug reactions: Rash maculo-papular (SAP n = 43, All grade): 40 (93.0) n (%)
- Adverse drug reactions: Skin and SC tissue disorders (SAP n = 43, All grade): 41 (95.3) n (%)
- Adverse drug reactions: Stomatitis (SAP n = 43, All grade): 26 (60.5) n (%)
- Adverse drug reactions: Vomiting (SAP n = 43, All grade): 4 (9.3) n (%)
- Adverse drug reactions: WBC count decreased (SAP n = 43, All grade): 19 (44.2) n (%)
- Adverse events: ALT increased (SAP n = 43, All grade): 8 (18.6) n (%)
- Adverse events: AST increased (SAP n = 43, All grade): 8 (18.6) n (%)
- Adverse events: Any events (SAP n = 43, All grade): 43 (100.0) n (%)
- Adverse events: Blood AP increased (SAP n = 43, All grade): 5 (11.6) n (%)
- Adverse events: Decreased appetite (SAP n = 43, All grade): 7 (16.3) n (%)
- Adverse events: Diarrhea (SAP n = 43, All grade): 9 (20.9) n (%)
- Adverse events: Dry skin (SAP n = 43, All grade): 10 (23.3) n (%)
- Adverse events: GGT increased (SAP n = 43, All grade): 7 (16.3) n (%)
- Adverse events: GI disorders (SAP n = 43, All grade): 35 (81.4) n (%)
- Adverse events: General disorders and administration site conditions (SAP n = 43, All grade): 25 (58.1) n (%)
- Adverse events: Hyperglycemia (SAP n = 43, All grade): 23 (53.5) n (%)
- Adverse events: Investigations (SAP n = 43, All grade): 29 (67.4) n (%)
- Adverse events: Metabolism and nutrition disorders (SAP n = 43, All grade): 28 (65.1) n (%)
- Adverse events: Nausea (SAP n = 43, All grade): 15 (34.9) n (%)
- Adverse events: Neutrophil count decreased (SAP n = 43, All grade): 15 (34.9) n (%)
- Adverse events: Pruritus (SAP n = 43, All grade): 8 (18.6) n (%)
- Adverse events: Pyrexia (SAP n = 43, All grade): 17 (39.5) n (%)
- Adverse events: Rash maculo-papular (SAP n = 43, All grade): 40 (93.0) n (%)
- Adverse events: Skin and SC tissue disorders (SAP n = 43, All grade): 41 (95.3) n (%)
- Adverse events: Stomatitis (SAP n = 43, All grade): 27 (62.8) n (%)
- Adverse events: Vomiting (SAP n = 43, All grade): 8 (18.6) n (%)
- Adverse events: WBC count decreased (SAP n = 43, All grade): 19 (44.2) n (%)
- Adverse drug reactions: ALT increased (SAP n = 43, ≥ Grade 3): 2 (4.7) n (%)
- Adverse drug reactions: AST increased (SAP n = 43, ≥ Grade 3): 0 (0.0) n (%)
- Adverse drug reactions: Any events (SAP n = 43, ≥ Grade 3): 30 (69.8) n (%)
- Adverse drug reactions: Blood AP increased (SAP n = 43, ≥ Grade 3): 0 (0.0) n (%)
- Adverse drug reactions: Decreased appetite (SAP n = 43, ≥ Grade 3): 0 (0.0) n (%)
- Adverse drug reactions: Diarrhea (SAP n = 43, ≥ Grade 3): 0 (0.0) n (%)
- Adverse drug reactions: Dry skin (SAP n = 43, ≥ Grade 3): 0 (0.0) n (%)
- Adverse drug reactions: GGT increased (SAP n = 43, ≥ Grade 3): 4 (9.3) n (%)
- Adverse drug reactions: GI disorders (SAP n = 43, ≥ Grade 3): 1 (2.3) n (%)
- Adverse drug reactions: General disorders and administration site conditions (SAP n = 43, ≥ Grade 3): 0 (0.0) n (%)
- Adverse drug reactions: Hyperglycemia (SAP n = 43, ≥ Grade 3): 7 (16.3) n (%)
- Adverse drug reactions: Investigations (SAP n = 43, ≥ Grade 3): 16 (37.2) n (%)
- Adverse drug reactions: Metabolism and nutrition disorders (SAP n = 43, ≥ Grade 3): 7 (16.3) n (%)
- Adverse drug reactions: Nausea (SAP n = 43, ≥ Grade 3): 0 (0.0) n (%)
- Adverse drug reactions: Neutrophil count decreased (SAP n = 43, ≥ Grade 3): 9 (20.9) n (%)
- Adverse drug reactions: Pruritus (SAP n = 43, ≥ Grade 3): 0 (0.0) n (%)
- Adverse drug reactions: Pyrexia (SAP n = 43, ≥ Grade 3): 0 (0.0) n (%)
- Adverse drug reactions: Rash maculo-papular (SAP n = 43, ≥ Grade 3): 20 (46.5) n (%)
- Adverse drug reactions: Skin and SC tissue disorders (SAP n = 43, ≥ Grade 3): 21 (48.8) n (%)
- Adverse drug reactions: Stomatitis (SAP n = 43, ≥ Grade 3): 1 (2.3) n (%)
- Adverse drug reactions: Vomiting (SAP n = 43, ≥ Grade 3): 0 (0.0) n (%)
- Adverse drug reactions: WBC count decreased (SAP n = 43, ≥ Grade 3): 5 (11.6) n (%)
- Adverse events: ALT increased (SAP n = 43, ≥ Grade 3): 2 (4.7) n (%)
- Adverse events: AST increased (SAP n = 43, ≥ Grade 3): 0 (0.0) n (%)
- Adverse events: Any events (SAP n = 43, ≥ Grade 3): 34 (79.1) n (%)
- Adverse events: Blood AP increased (SAP n = 43, ≥ Grade 3): 0 (0.0) n (%)
- Adverse events: Decreased appetite (SAP n = 43, ≥ Grade 3): 1 (2.3) n (%)
- Adverse events: Diarrhea (SAP n = 43, ≥ Grade 3): 0 (0.0) n (%)
- Adverse events: Dry skin (SAP n = 43, ≥ Grade 3): 0 (0.0) n (%)
- Adverse events: GGT increased (SAP n = 43, ≥ Grade 3): 6 (14.0) n (%)
- Adverse events: GI disorders (SAP n = 43, ≥ Grade 3): 2 (4.7) n (%)
- Adverse events: General disorders and administration site conditions (SAP n = 43, ≥ Grade 3): 0 (0.0) n (%)
- Adverse events: Hyperglycemia (SAP n = 43, ≥ Grade 3): 7 (16.3) n (%)
- Adverse events: Investigations (SAP n = 43, ≥ Grade 3): 18 (41.9) n (%)
- Adverse events: Metabolism and nutrition disorders (SAP n = 43, ≥ Grade 3): 9 (20.9) n (%)
- Adverse events: Nausea (SAP n = 43, ≥ Grade 3): 0 (0.0) n (%)
- Adverse events: Neutrophil count decreased (SAP n = 43, ≥ Grade 3): 9 (20.9) n (%)
- Adverse events: Pruritus (SAP n = 43, ≥ Grade 3): 0 (0.0) n (%)
- Adverse events: Pyrexia (SAP n = 43, ≥ Grade 3): 0 (0.0) n (%)
- Adverse events: Rash maculo-papular (SAP n = 43, ≥ Grade 3): 20 (46.5) n (%)
- Adverse events: Skin and SC tissue disorders (SAP n = 43, ≥ Grade 3): 21 (48.8) n (%)
- Adverse events: Stomatitis (SAP n = 43, ≥ Grade 3): 1 (2.3) n (%)
- Adverse events: Vomiting (SAP n = 43, ≥ Grade 3): 0 (0.0) n (%)
- Adverse events: WBC count decreased (SAP n = 43, ≥ Grade 3): 5 (11.6) n (%)
- Death (grade 5 respiratory failure, judged unrelated to TAS-117) (SAP, cohort 1): One patient
- Adverse drug reactions: ALT increased (Total N = 65, All grade): 7 (10.8) n (%)
- Adverse drug reactions: AST increased (Total N = 65, All grade): 8 (12.3) n (%)
- Adverse drug reactions: Any events (Total N = 65, All grade): 64 (98.5) n (%)
